Laboratory results reported in US8637461B2, “Method of diagnosing and treating oxidative stress-impaired wound healing” (Kuwait University, priority 2011, dated 2014).

Columns and labels:
[1] = Body weight and fasting plasma parameters in diabetic and hypercortisolemic rats; format: in vivo, rat
Procedure: (§1) All animal procedures were performed in accordance with the NIH Guidance for the Care and Use of Laboratory Animals. The current study used, respectively the GK and Dexamethasone-treated rats as models for diabetes and hypercortisolemia. Dexamethasone was administered subcutaneously at a dose of 2.5 μg/kg body weight in the morning (8:00 AM) and in the evening (8:00 PM) for a duration of four weeks before wounding and this form of therapy continued during the course of healing. […] Weight and age-matched female Wistar rats (Kuwait University breeding colony) served as the corresponding controls. All of the animals were maintained under standard conditions with 12 hours on/off light cycle, commercial diet, and water ad libitum. GK rats destined for wounding were initially matched with regard to body weight (e.g., 230 to 250 g), and plasma levels of glucose, free fatty acids and insulin. These indices are commonly used to reflect the severity of the diabetic state.
(§2) Animals used for IGF-1 sensitivity (n=6/group) and wound healing (n=8) studies were partitioned into five study groups including control, diabetic, hypercortisolemic, diabetic+EUK and hypercortisolemic+EUK. The EUK-134 was administered for duration of four weeks before wound induction and it continued during the course of healing.

[2] = test system: IRS-1; test: IRS-1 Tyr612 phosphorylation, immunoprecipitation/western blotting in dermal fibroblasts; format: cell-based, rat
Procedure: (§3) Primary dermal fibroblasts were obtained from dorsal skin of female Goto Kakizaki (GK, age 12-15 months) rats, a model for non-obese type 2 diabetes, and their Wistar control counterparts. After sterilization in povidine solution, rat skin was washed in sterile water and rinsed in 70% ethanol in PBS. Epidermis and dermis were separated following overnight incubation in 0.25% trypsine/EDTA at 4 C. Dermis was cut into small pieces and incubated in Dulbecco's modified Eagle medium (DMEM; Invitrogen) containing collagenase (250 U/ml; Sigma) for thirty min at 37 C in 5% CO2 with constant agitation. The sections were triturated vigorously to release fibroblasts, which were collected by centrifugation. The cell pellet was washed two times with PBS, re-suspended in complete medium (DMEM supplemented with 10% fetal calf serum, penicillin (100 U/ml), streptomycin (100 μg/ml)), 2 mM L-glutamine and 10 mM HEPES) and then cultured under a standard condition.
(§4) A hypercortisolemic state was mimicked by exposing control fibroblasts to dexamethasone (Dexa, Sigma) administered at 20 ng/ml every other day for a duration of 8 days. Similarly, the state of low-grade inflammation in fibroblasts was recapitulated experimentally by exposing these cells to TNF-α (4 ng/ml every day for 4 days). […] The concentration of IGF-1 (50 ng/ml, Peprotech) was determined by prior dose response experiment.
Levels/activities of key intracellular molecules in the IGF-1 signaling cascade including IRS-1, IRS-1 Tyr-p-612, PI3K-p85α, IRS-1 Ser-p (307), PI3K, Akt, p-Akt, INK and p-JNK were assessed using western blotting/immunoprecipitation and commercially available ELISA-based assays.
Ice-cold radioimmunoprecipitation assay (RIPA) buffer was used for the extraction of proteins from fibroblasts. Immunoprecipitation was achieved by incubating cell homogenates with anti-IRS-1 antibody overnight at 4° C. followed by the addition of protein A/G-Agarose for additional two hours. Immunoprecipitates were separated using spin-collection filters (Cytosignal), washed once with RIPA buffer/3× with PBS and then elutated by the addition of Laemmli buffer. […] Antigen-antibody complexes were visualized by an enhanced chemiluminescence system on BioMax Light Film (Kodack) and then the densitometry was analyzed using Quantity One 1-D image software (BioRad, GS 800). All densitometry data were corrected for equal loading using the house keeping gene β-actin and they were expressed as fold change vs. control.

[3] = test system: reactive oxygen species (ROS); test: ROS generation in cultured fibroblasts (DCF-DA); format: cell-based, rat; conditions: fibroblasts with diabetic, inflammatory or hypercortisolemia phenotypes; ROS suppressors
Procedure: as §3, §4
ROS generation in cultured fibroblasts was evaluated using dichloroflurescein-diacetate (DCF-DA, Molecular Probes), a probe that is oxidized to the fluorescent product DCF upon exposure to hydrogen peroxide, peroxynitrite, hydroxyl radical and nitric oxide. Its concentration serves as an indicator of the overall degree of intracellular oxidative stress.
Cells seeded in 96-well plates were incubated for thirty minutes at 37 C in serum free media containing 5 μM of DCF-DA. The plates were then washed twice with Krebs Ringer Buffer (KR) and the fluorescence readings were taken every 15 min for 1 hr at Ex=485 and Em=530. Subtracted background values were obtained from wells containing DCF-DA without cells. […]

[4] = test system: dermal fibroblasts; test: BrdU cell proliferation assay in fibroblasts; format: cell-based, rat
Procedure: as §3, §4
(§5) The proliferation and collagen synthesis of cultured fibroblasts were determined using, respectively the 5-bromo-2-deoxyuridine (BrdU) incorporation into DNA and a radiolabelled proline uptake assay.
Cells were seeded into 96-microtiter plates at a concentration of 1.5×10^4 and allowed to adhere overnight in DMEM supplemented with 10% FCS. After arrest by incubation in DMEM supplemented with 0.5% FCS for 24 hrs, cells were exposed to IGF-I (50 ng/ml) in DMEM containing […] 5-bromo-2-deoxyuridine (BrdUrd). Incorporation of BrdUrd into DNA was estimated using 5-bromo-2-deoxyuridine labeling and detection kit (Roche Applied Science) according to the manufacturer's instructions.

[5] = test system: excisional wounds; test: Full-thickness excisional wound healing, 7 days; format: in vivo, rat; conditions: diabetic/hypercortisolemic rat wounds, antioxidant administered
Procedure: as §1, §2
Animals derived from various experimental groups were anesthetized by ip, injection of 90 mg ketamine+10 mg xylazine/kg body weight, and their back skin was shaved, depilated with Nair and cleaned with 70% alcohol. Six bilateral full-thickness excisional wounds (8 mm in diameter) at equidistant from midline were created on the dorso-rostral back skin. Wounds were separated by a minimum of 1 cm of uninjured skin. […] The wound area was analyzed using Adobe PhotoShop (version 7.0; Adobe Systems) and the percentage of wound closure was derived by the following formula: (1−[current wound size/initial wound size])×100.

[6] = Rapid insulin sensitivity test (RIST) with IGF-1 instead of insulin; format: in vivo, rat
Procedure: as §1, §2
IGF-1 sensitivity in control, diabetic and hypercortisolemic animals was determined using the rapid insulin sensitivity test (RIST) with IGF-1 (200 μg/kg BW) infused instead of insulin. The RIST index is the amount of glucose per kg body weight required to maintain euglycemia following a bolus of insulin (50 mU/kg BW).

[7] = diabetic patients, cited from earlier work
[8] = test system: PI3K; test: PI3K ELISA kinase assay on fibroblast lysates; format: cell-based, rat; conditions: fibroblasts exposed to IGF-1
Procedure: as §3
(§6) A hypercortisolemic state was mimicked by exposing control fibroblasts to dexamethasone (Dexa, Sigma) administered at 20 ng/ml every other day for a duration of 8 days. […] The concentration of IGF-1 (50 ng/ml, Peprotech) was determined by prior dose response experiment.
PI3K activity was measured using PI3K ELISA (Echelon Biosciences Inc). […]

[9] = test system: dermal fibroblasts; test: Radiolabelled proline uptake assay (collagen synthesis) in fibroblasts; format: cell-based, rat; conditions: control fibroblasts, IGF-1
Procedure: as §3, with “The cell pellet was washed two times with PBS, re-suspended in complete medium (DMEM supplemented with 10% fetal calf serum, penicillin (100 U/ml), streptomycin (100 μg/ml)), 2 mM L-glutamine and 10 mM HEPES) and then cultured under a standard condition.” left out
as §6, §5
A radiolabel proline uptake assay was used in the quantification of the rate of collagen synthesis in cultured fibroblasts derived from various experimental groups. […]

[10] = test system: PI3K-p85α / IRS-1; test: Co-precipitation of PI3K p85α with IRS-1 in dermal fibroblasts; format: cell-based, rat; conditions: fibroblasts exposed to IGF-1
Procedure: as §3, with “The cell pellet was washed two times with PBS, re-suspended in complete medium (DMEM supplemented with 10% fetal calf serum, penicillin (100 U/ml), streptomycin (100 μg/ml)), 2 mM L-glutamine and 10 mM HEPES) and then cultured under a standard condition.” left out
as §6
(§7) Levels/activities of key intracellular molecules in the IGF-1 signaling cascade including IRS-1, IRS-1 Tyr-p-612, PI3K-p85α, IRS-1 Ser-p (307), PI3K, Akt, p-Akt, INK and p-JNK were assessed using western blotting/immunoprecipitation and commercially available ELISA-based assays. […]

[11] = test system: Akt; test: Akt phosphorylation, FACE cell-based ELISA in fixed fibroblasts; parameters: species or system rat; conditions: normal fibroblasts exposed to IGF-1
Procedure: as §3, with “The cell pellet was washed two times with PBS, re-suspended in complete medium (DMEM supplemented with 10% fetal calf serum, penicillin (100 U/ml), streptomycin (100 μg/ml)), 2 mM L-glutamine and 10 mM HEPES) and then cultured under a standard condition.” left out
as §6
Activation of Akt and JNK was analyzed in fixed fibroblasts using FACE-Akt and FACE-JNK (both from Active Motife). […] Labeling with antibodies was conducted according to the manufacturer's protocol and the resulting phosphoantibody signal was calculated after correction for number of cells and total Akt or JNK levels in each sample. […]

[12] = test system: Akt; test: Akt phosphorylation, western blotting in dermal fibroblasts; format: cell-based, rat; conditions: normal fibroblasts exposed to IGF-1; western blot
Procedure: as §3, with “The cell pellet was washed two times with PBS, re-suspended in complete medium (DMEM supplemented with 10% fetal calf serum, penicillin (100 U/ml), streptomycin (100 μg/ml)), 2 mM L-glutamine and 10 mM HEPES) and then cultured under a standard condition.” left out
as §6, §7

[13] = Wistar rats, dexamethasone 2.5 μg/kg sc twice daily (hypercortisolemia model)
[14] = fibroblasts with diabetic, inflammatory or hypercortisolemia phenotypes, ROS suppressors

C[C@@H]1C[C@H]2[C@@H]3CCC4=CC(=O)C=C[C@]4(C)[C@@]3(F)[C@@H](O)C[C@]2(C)[C@@]1(O)C(=O)CO [Dexa, dexamethasone]
FBG (fasting blood glucose) [1, 13]: 78 ± 9 mg/dL
FFA (free fatty acid) [1, 13]: 706 ± 25 µM
FPI (fasting plasma insulin) [1, 13]: 0.78 ± 0.061 ng/mL

O=C(O)CCCCC1CCSS1 (stereo not drawn) [α-lipoic acid]
abnormalities regarding lipid and carbohydrate profiles ([1]; diabetic and hypercortisolemic rats, chronic treatment with ROS suppressors): ameliorated
common defect in IGF-1 signaling [2, 14]: correct the common defect in IGF-1 signaling
HSOS (oxidative stress) [3]: lessen the HSOS
impairment in key fibroblast functions (collagen synthesis, cell proliferation, migration, contraction) [4, 14]: ameliorates
healing rates of wounds [5]: statistically indistinguishable from control rat wounds treated with IGF-1 alone
improvement of glucose metabolism in response to bolus injection of IGF-1 ([6]; diabetic/hypercortisolemic rats, chronic administration of antioxidant): about 20%

IGF-1
phosphorylation of Tyr612 on IRS-1 ([2]; control fibroblasts exposed to IGF-1 (50 ng/ml)): induces rapid phosphorylation
glucose metabolism response to IGF-1 ([7]; 26 pmol continuous infusion): virtually no response
decrease of response to IGF-1 relative to healthy adults ([7]; 52 pmol continuous infusion): ~40%
PI3K enzymatic activity [8]: increases PI3K enzymatic activity
increase in BrdU incorporation compared with medium only control ([4]; control fibroblasts, IGF-1 50 ng/ml, 24 hours): ~5 fold
reduction of IGF-1 action in inducing DNA synthesis ([4]; diabetic fibroblasts): about 46%
reduction of IGF-1 action in inducing DNA synthesis ([4]; hypercortisolemic fibroblasts): ~36%
increase in collagen synthesis [9]: about 63%
PI3K activation (p85α co-precipitated with IRS-1) [10]: activates PI3K
Akt phosphorylation [11]: phosphorylated (activated)
Akt phosphorylation [12]: phosphorylated (activated)
glucose metabolized in response to bolus injection of IGF-1 (RIST) ([6]; rats with diabetic complications or chemically-induced hypercortisolemia): about 125 mg glucose per kg body weight
glucose metabolized in response to bolus injection of IGF-1 (RIST) ([6]; untreated rats): 175 mg glucose per kg
